The values below are quoted from earlier work in patent publication US20210353513A1, “STABILIZED OIL-IN-WATER EMULSION” (priority 2018, published 2021).

For `CCCCCCCCCC(=O)OCC(COC(=O)CCCCCCCCC)OC(=O)CCCCCCCCC` [Tricaprin (s, β), Tricaprin], the “Density (g/cm^3) at 20° C.” value is 1.05 g/mL.
